Entries after “also recorded” stand apart in the source; their conditions may differ. Peptide text beside a SMILES is read from it. * marks the point of attachment. Cbz = O=C(OCc1ccccc1)*
Test system: Ub^G76V-GFP reporter (ubiquitin-proteasome system) in transiently transfected cells
Test: UPS reporter assay (Ub^G76V-GFP, flow cytometry), functionality control with proteasomal inhibitor
Format: cell-based
Details: 5 μM MG-132, 24 hours
Protocol: FIGS. 12A-12C show flow-cytometric analysis of untransfected cells (12A), Ub^G76V-GFP transfected cells (12B), and Ub^G76V-GFP transfected cells treated for 24 hours with 5 μM of the proteasomal inhibitor, MG-132 (12C).
Experiments were conducted during development of embodiments of the present invention to investigate the functional consequences of the mutant ubiquilin2 in protein degradation through the ubiquitin-proteasome system (UPS) was investigated. The UPS reporter substrate Ubiquitin^G76V-Green Fluorescent Protein (Ub^G76V-GFP) was used to test the effects of mutant ubiquilin2 on the ubiquitin-mediated protein degradation. Two mutations at two different sites were tested (P497H and P506T) using the Ub^G76V-GFP reporter system. […]
SH-SYSY and Neuro2a cells were grown in 24-well plates and double-transfected with the UPS reporter (20) vector containing UbG76V-GFP (Addgene plasmid #11941) and a dual expression vector containing DsRed2 with either wild-type or mutant Ubiquilin 2. […] All flow cytometric data were collected and analyzed using a MoFlo cell sorter and Summit software (DakoCytomation, Fort Collins, Colo.). […] At least 500 such events were recorded. […]

For `CC(C)C[C@@H](C=O)NC(=O)[C@H](CC(C)C)NC(=O)[C@H](CC(C)C)NC(=O)OCc1ccccc1` [MG-132] (Cbz-Leu-Leu-Leu-aldehyde), the “GFP fluorescence (FL1) intensity / accumulation of the Ub^G76V-GFP signal” value was “marked increase in GFP fluorescence (FL1) intensity; also recorded: remarkable accumulation of the Ub^G76V-GFP signal”.

Reference: patent US11041205B2, “Molecular targets for ALS and related disorders” (Northwestern University, priority 2010, dated 2021)
